According to ChEMBL document CHEMBL4028875, “Design of Leucine-Rich Repeat Kinase 2 (LRRK2) Inhibitors Using a Crystallographic Surrogate Derived from Checkpoint Kinase 1 (CHK1)” (J Med Chem, 2017):
Calls of active or inactive are those of the source. The rule behind the calls is not given here.

Legend:
[1] = molecular target: T1, Tyrosine-protein kinase JAK3 (Homo sapiens) (UniProt P52333); experiment: Inhibition of recombinant human JAK3 JH1 catalytic domain (781 to 1124 residues) expressed in mammalian expression system at 1 uM by KINOMEScan assay relative to control
T1 sequence (whole entry): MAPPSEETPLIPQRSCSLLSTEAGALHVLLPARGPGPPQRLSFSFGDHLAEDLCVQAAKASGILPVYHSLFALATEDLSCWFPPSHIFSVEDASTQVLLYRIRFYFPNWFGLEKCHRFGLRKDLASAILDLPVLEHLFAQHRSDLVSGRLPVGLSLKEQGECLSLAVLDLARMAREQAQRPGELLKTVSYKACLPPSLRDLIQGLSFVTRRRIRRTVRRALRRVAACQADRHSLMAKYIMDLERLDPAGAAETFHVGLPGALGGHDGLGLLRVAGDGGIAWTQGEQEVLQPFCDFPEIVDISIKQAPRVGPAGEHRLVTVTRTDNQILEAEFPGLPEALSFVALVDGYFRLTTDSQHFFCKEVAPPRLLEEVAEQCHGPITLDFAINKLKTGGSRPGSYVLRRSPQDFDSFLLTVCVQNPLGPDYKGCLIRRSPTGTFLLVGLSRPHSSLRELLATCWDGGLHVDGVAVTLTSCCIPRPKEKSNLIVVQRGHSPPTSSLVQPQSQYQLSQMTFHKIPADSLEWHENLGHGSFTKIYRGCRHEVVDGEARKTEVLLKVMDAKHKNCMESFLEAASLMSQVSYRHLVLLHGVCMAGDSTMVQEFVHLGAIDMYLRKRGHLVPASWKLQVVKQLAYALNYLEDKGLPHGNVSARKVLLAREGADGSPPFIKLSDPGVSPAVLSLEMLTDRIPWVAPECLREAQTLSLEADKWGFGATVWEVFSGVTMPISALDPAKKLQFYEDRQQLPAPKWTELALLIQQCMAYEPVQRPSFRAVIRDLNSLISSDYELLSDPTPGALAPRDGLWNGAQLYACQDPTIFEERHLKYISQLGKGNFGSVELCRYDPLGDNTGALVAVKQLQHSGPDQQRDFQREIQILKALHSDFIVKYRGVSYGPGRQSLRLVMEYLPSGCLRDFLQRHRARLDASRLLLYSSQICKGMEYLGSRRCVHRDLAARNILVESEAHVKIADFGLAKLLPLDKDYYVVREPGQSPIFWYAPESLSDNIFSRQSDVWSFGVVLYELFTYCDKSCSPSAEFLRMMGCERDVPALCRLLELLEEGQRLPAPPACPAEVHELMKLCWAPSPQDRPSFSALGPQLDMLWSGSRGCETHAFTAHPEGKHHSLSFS

[2] = molecular target: T1, Tyrosine-protein kinase JAK3 (Homo sapiens); experiment: Inhibition of JAK3 in human PBMC at 1 uM
[3] = molecular target: T2, Adenosine receptor A1 (Homo sapiens) (UniProt P30542); experiment: Agonist activity at recombinant human adenosine A1 receptor expressed in BA/F3 cells up to 10 uM by Ca2+ flux assay; type: functional, cell-based
T2 sequence (whole entry): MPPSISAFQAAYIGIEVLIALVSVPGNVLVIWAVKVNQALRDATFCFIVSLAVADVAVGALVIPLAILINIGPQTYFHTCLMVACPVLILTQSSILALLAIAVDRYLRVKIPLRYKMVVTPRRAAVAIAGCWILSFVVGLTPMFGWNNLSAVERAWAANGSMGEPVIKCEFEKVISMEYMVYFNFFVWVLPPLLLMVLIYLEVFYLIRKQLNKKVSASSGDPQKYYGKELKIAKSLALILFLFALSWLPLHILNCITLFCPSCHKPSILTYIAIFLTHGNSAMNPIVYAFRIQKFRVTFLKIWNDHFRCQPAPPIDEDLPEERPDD

[4] = molecular target: T3, Adenosine receptor A3 (Homo sapiens) (UniProt P0DMS8); experiment: Antagonist activity at recombinant human adenosine A3 receptor expressed in CHO-K1 cells assessed as inhibition of IB-MECA-induced cAMP accumulation up to 10 uM after 20 mins by HTRF assay; type: functional, cell-based
T3 sequence (whole entry): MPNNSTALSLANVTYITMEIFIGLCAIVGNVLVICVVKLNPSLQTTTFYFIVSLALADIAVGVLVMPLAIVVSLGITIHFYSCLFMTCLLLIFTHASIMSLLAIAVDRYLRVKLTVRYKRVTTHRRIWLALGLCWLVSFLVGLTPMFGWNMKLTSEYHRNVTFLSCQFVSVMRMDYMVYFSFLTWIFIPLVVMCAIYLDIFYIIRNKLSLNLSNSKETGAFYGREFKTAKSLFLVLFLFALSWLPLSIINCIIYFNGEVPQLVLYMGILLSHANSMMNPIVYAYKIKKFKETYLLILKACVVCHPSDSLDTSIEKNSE

[5] = molecular target: T4, Serine/threonine-protein kinase TAO3 (Homo sapiens) (UniProt Q9H2K8); experiment: Inhibition of TAO3 in human PBMC at 1 uM
T4 sequence (whole entry): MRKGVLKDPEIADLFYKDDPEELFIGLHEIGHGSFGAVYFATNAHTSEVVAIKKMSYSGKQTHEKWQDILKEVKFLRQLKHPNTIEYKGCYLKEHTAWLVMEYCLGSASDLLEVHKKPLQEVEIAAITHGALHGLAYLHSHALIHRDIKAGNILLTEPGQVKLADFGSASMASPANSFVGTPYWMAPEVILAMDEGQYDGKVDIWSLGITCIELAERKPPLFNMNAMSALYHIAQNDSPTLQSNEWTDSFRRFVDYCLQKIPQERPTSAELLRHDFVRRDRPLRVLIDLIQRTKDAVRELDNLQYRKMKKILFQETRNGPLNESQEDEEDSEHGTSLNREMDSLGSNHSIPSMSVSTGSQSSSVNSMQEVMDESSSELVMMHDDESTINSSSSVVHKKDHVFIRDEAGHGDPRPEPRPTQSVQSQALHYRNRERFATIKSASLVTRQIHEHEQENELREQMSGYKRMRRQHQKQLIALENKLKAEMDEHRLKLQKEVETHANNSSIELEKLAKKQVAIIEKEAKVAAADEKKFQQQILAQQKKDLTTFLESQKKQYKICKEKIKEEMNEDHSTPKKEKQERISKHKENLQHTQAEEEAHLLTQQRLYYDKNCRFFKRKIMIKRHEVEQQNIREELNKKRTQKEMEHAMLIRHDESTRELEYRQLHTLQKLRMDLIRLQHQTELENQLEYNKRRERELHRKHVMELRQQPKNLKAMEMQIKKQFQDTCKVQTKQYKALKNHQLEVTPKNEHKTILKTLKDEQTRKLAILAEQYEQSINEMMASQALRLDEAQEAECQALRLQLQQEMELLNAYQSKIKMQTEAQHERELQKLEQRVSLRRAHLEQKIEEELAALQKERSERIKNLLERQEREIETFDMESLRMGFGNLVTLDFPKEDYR

SMILES: Cc1cccc(-c2cc(N)nc3[nH]cc(C#N)c23)c1
- inhibition [1]: > 95%
- inhibition [2]: > 60%
- Activity [3]: inactive
- inhibition [4]: inactive
- inhibition [5]: > 35%
